Results reported in PMC8365597, “Structural Insights into Notum Covalent Inhibition” (Journal of Medicinal Chemistry, 2021).
Changes are numbered by the printed parent chain.

Assays:
Notum S232A mutant = molecular target: T1, Notum S232A mutant (Homo sapiens, UniProt Q6P988, C330S/S232A); experiment: ESI-QTOF intact protein mass spectrometry detection of covalent binding, mutant control; conditions: 10 mM Hepes pH 7.4, 150 mM NaCl, room temperature, 1 h
T1 construct: comprising amino acids S81–T451 with a C330S mutation; inferred from HisTrap purification and imidazole elution; made in house
T1 sequence (Q6P988 81-451 S232A/C330S): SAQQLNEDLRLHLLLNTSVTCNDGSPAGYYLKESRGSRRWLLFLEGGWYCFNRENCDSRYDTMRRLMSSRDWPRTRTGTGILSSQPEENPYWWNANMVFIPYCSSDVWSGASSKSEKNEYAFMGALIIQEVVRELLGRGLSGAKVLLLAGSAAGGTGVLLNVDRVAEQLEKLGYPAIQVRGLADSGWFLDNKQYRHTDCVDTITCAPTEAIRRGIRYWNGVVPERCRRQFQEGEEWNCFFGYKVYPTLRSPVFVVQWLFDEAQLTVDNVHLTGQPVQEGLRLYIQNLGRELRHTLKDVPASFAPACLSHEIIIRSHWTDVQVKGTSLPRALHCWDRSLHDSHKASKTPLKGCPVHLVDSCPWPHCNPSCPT
Description: (§1) However, the crystals were grown and soaked under low pH (pH 4.2) and high salt (1.5 M ammonium sulphate) conditions. To measure covalent bonding and stability under near physiological conditions, we incubated Notum (deglycosylated) protein with 1 in buffer containing 10 mM Hepes, pH 7.4, 150 mM NaCl at room temperature for 1 h. The mixture was then subjected to ultrahigh-performance liquid chromatography (uHPLC) reversed-phase chromatography separation, followed by electrospray ionization quadrupole time-of-flight (ESI-QTOF) mass spectrometry analysis. […] There are some other minor peaks that may reflect incomplete removal of glycans. […] The calculated MW of 1 is 233.27 Da, while its methyl ester-hydrolyzed form (RW8) is 201.22 Da. […] To establish whether the covalent link is dependent on the nucleophile serine residue, we further used the Notum S232A mutant as a control, observing a mass of 44103.32 Da (Figure 2C). The decrease of 15.79 Da compared to the wild type is consistent with the expected serine to alanine mutation.
(§2) Reversed-phase chromatography was performed in-line prior to mass spectrometry using an Agilent 1290 uHPLC system (Agilent Technologies inc. USA). […] Protein intact mass was determined using a 6530 ESI-QTOF mass spectrometer (Agilent Technologies Inc. USA). […]

Notum [1] = molecular target: T2, Notum (Homo sapiens, UniProt Q6P988, C330S); experiment: Cell-based TCF/LEF reporter (luciferase) assay, HEK293 STF cells with exogenous Wnt3a and Notum; conditions: HEK293 TCF/LEF luciferase reporter cell line
T2 construct: comprising amino acids S81–T451 with a C330S mutation; inferred from HisTrap purification and imidazole elution; made in house
T2 sequence (Q6P988 81-451 C330S): T1 sequence (Q6P988 81-451 S232A/C330S) with A152S
Description: Selected compounds were further investigated for inhibition of Notum activity in a Wnt/β-catenin signaling pathway TCF/LEF reporter (luciferase) HEK293 cell line with exogenous Wnt3a and Notum.[22],[25]
The cellular Wnt signaling functional assay has been described in previous reports.[24],[25] Briefly, the reporter cell plate containing stable HEK293 STF cells[53] (1 × 10^4 cells per well in 384-well microplates) carrying the Super Top Flash firefly luciferase reporter was prepared (overnight at 37 °C). Compounds and Notum protein were mixed for 10 min before the recombinant Wnt-3A was added and incubated for 1 h at room temperature. Then, the mixture from the compound plates was added to reporter cell plates and incubation overnight at 37 °C. For luciferase assay, steady-glo luciferase assay buffer (20 μL, Promega) was applied to the cell plates using the CyBio, the luminescence was measured on a PHERAstar FSXmicroplate reader with an excitation wavelength of 458 nm and an emission wavelength of 520 nm.

Notum [2] = molecular target: T2, Notum; experiment: Notum OPTS activity assay (cell-free biochemical)
Description: Notum is a druggable target for Wnt signaling modulation.[23] We have previously determined a number of structures of Notum inhibitor complexes.[21],[22],[24],[25],[27],[28] All of these inhibitors bind noncovalently at the Notum enzyme catalytic pocket, where the natural substrate PAM binds. For searching covalent inhibitors, we used this noncovalent inhibitor binding information to limit compound docking into the enzyme active site. A virtual library of approximately 1.5 million compounds (ChemDiv) was filtered to generate 534,804 candidates for docking with a Notum structure (PDB code 6T2K) by Schrödinger Glide SP[37],[38] (Experimental Section). Resulting 1330 compounds with score −9 or better were subject to manual inspection and availability check. Finally, 952 compounds were purchased and experimentally screened using a cell-free trisodium 8-octanoyloxypyrene-1,3,6-trisulfonate (OPTS) biochemical assay.[22] […] The soaked crystals were harvested, and diffraction data were collected at the Diamond Light Source. The structures were determined by molecular replacement and refined with Refmac to screen for difference map peaks (Experimental Section). Chemical structures were then fitted into the difference maps with the aim of identifying covalent binders. Methyl 4-indolinyl-4-oxobutanoate (1) was identified as the only covalent binder to emerge from the screen (Figure 1). The 1 soaked crystal diffracted to 1.2 Å resolution with a P2_12_12_1 space group containing one enzyme-inhibitor complex in an asymmetric unit (for data collection and refinement statistics, see Supporting Information, Table S1). The overall structure maintained the characteristic apo Notum fold (Figure 1A), with a α/β hydrolase core domain (β1-8 strands and αB, C, and F helices) and a moveable lid domain (αA, D, and E helices). 1 is composed of an indole ring linked to an oxo-butyric acid methyl ester (Figure 1B). The methyl ester-hydrolyzed 1 (with PDB identifier RW8) is an excellent fit in the strong electron density that extends from the nucleophile residue S232 (Figure 1C). The electron density for the RW8 is of equally high quality to that of the surrounding Notum amino acids. […] The movable lid domain sits between the “open” (PDB code 4UYU) and “closed” (PDB code 4UZ1) conformations with obvious movements of the flexible β6_αD loop (Figure 1D). When superimposed with the natural substrate, PAM-bound, structure (PDB code 4UZQ), the RW8 overlaps with the PAM within the enzyme pocket (Figure 1E). The indole ring is located toward the bottom of the pocket, while the butyric acid head group is well-aligned with the PAM head (Figure 1E). Residues that form the base of the pocket (P287–I291) are positioned closer to the RW8 indole ring than in the PAM-bound structure. For example, P287 Cα has moved 1.7 Å toward the pocket center (Figure 1E) to optimize interactions with the RW8 indole ring, which extends less far into the pocket than PAM.
The Notum inhibitory potencies of these compounds were assessed by determining OPTS IC50 values, which can be used to compare the relative activities of covalent inhibitors under carefully regulated conditions.[43] […] When a phenyl ring is added to produce benzyl ester, 5, the IC50 is also slightly better than 1.
The OPTS activity assay has been described in previous reports.[24],[25] Briefly, the test compounds, the reporter substrate OPTS (Sigma), and the recombinant Notum protein were dispensed into 384-well plates (Greiner) using a Labcyte Echo 550 acoustic liquid handler and incubated 40 min in room temperature. The endpoint fluorescence was measured on a PheraSTAR FSX microplate reader with an excitation wavelength of 485 nm and an emission wavelength of 520 nm. The compound IC50 values were calculated from curves using a 4PL fit.

Notum (deglycosylated) = molecular target: T3, Notum (deglycosylated) (Homo sapiens, UniProt Q6P988, C330S); experiment: ESI-QTOF intact protein mass spectrometry detection of covalent binding; conditions: 10 mM Hepes pH 7.4, 150 mM NaCl, room temperature, 1 h
T3 construct: comprising amino acids S81–T451 with a C330S mutation; inferred from HisTrap purification and imidazole elution; made in house
T3 sequence (Q6P988 81-451 C330S): T1 sequence (Q6P988 81-451 S232A/C330S) with A152S
Description: as §1, §2

Notum (glycosylated) = molecular target: T4, Notum (glycosylated) (Homo sapiens, UniProt Q6P988, C330S); experiment: Thermal shift assay (differential scanning fluorimetry); assay type: binding; conditions: for ΔTm at 1000 µM: compound 1 mM, read-out: max ΔTm; for ΔTm: compound ∼30 μM (31 μM in Figure 3)
T4 construct: comprising amino acids S81–T451 with a C330S mutation; inferred from HisTrap purification and imidazole elution; made in house
T4 sequence (Q6P988 81-451 C330S): T1 sequence (Q6P988 81-451 S232A/C330S) with A152S
Description: To further characterize Notum 1 binding, especially regarding the importance of the methyl ester warhead of 1, we used a thermal shift assay (also known as differential scanning fluorimetry) to compare the binding properties of 1 with its methyl-less acid form, 4-indolinyl-4-oxobutanoic acid (2). The thermal shift assay is a reliable label-free strategy to detect small molecule–protein binding by measuring protein melting temperature (Tm) changes.[39]−[41] A ΔTm of 2 °C or more indicates a small molecule binding to the target protein.[42] Notum was incubated with each compound in the presence of a fluorescent indicator, […], and the melting curves were recorded. 1 and 2, despite only differing by a single methyl group, yield highly different Notum melting curves (Figure 3). […] To establish the dose-dependent thermal shift responses, we performed a twofold serial dilution of the compounds.
Thermal shift assays were carried out in a semiskirted 96-well PCR plate (4-Titude). Each well contains 3 μg of glycosylated Notum protein, 3× SYPRO Orange dye (Thermo Fisher Scientific), and compounds at various concentrations and adjusted to a final volume of 50 μL with assay buffer (10 mM Hepes, pH7.4, 150 mM NaCl, and 2% DMSO). The samples were heated in an Mx3005p qPCR machine (Stratagene, Agilent Technologies) from room temperature at a rate of 1 °C/min for 74 cycles. Fluorescence changes were monitored with excitation and emission wavelengths at 492 and 610 nm, respectively.

[3] = mean ± s.d. (n = 4), 40 min incubation at room temperature

COC(=O)CCC(=O)N1CCc2ccccc21 [Compound 1, Methyl 4-indolinyl-4-oxobutanoate]
mass change of treated Notum S232A mutant (Notum S232A mutant): no mass change
EC50 (Notum [1]): 0.53 ± 0.047 µM
IC50 (Notum [2]; [3]): 0.093 ± 0.02 µM
mass increase of treated Notum compared to untreated Notum (Notum (deglycosylated)): 201.25 Da
ΔTm at 8 µM (Notum (glycosylated); compound 8 μM, start of significant changes): 2 °C
ΔTm at 1000 µM (Notum (glycosylated)): 10 °C
ΔTm (Notum (glycosylated)): 5 °C

O=C(O)CCC(=O)N1CCc2ccccc21 [Compound 2, 4-indolinyl-4-oxobutanoic acid]
IC50 (Notum [2]; [3]): 3.1 ± 0.92 µM
ΔTm at 1000 µM (Notum (glycosylated)): 2.5 °C
ΔTm (Notum (glycosylated)): 1 °C

CCOC(=O)CCC(=O)N1CCc2ccccc21 [Compound 3]
EC50 (Notum [1]): 0.3 ± 0.06 µM
IC50 (Notum [2]; [3]): 0.19 ± 0.045 µM

O=C(CCC(=O)N1CCc2ccccc21)OCC(F)F [Compound 4]
IC50 (Notum [2]; [3]): 0.012 ± 0.0028 µM

O=C(CCC(=O)N1CCc2ccccc21)OCc1ccccc1 [Compound 5]
IC50 (Notum [2]; [3]): 0.064 ± 0.014 µM

CC(C)OC(=O)CCC(=O)N1CCc2ccccc21 [Compound 6]
IC50 (Notum [2]; [3]): 4.3 ± 0.4 µM

CC(C)(C)OC(=O)CCC(=O)N1CCc2ccccc21 [Compound 7]
inhibition at 10 µM (Notum [2]; @ 10 μM, read-out: Notum OPTS % inhibition (% I)): < 10%
Notum OPTS IC50 (Notum [2]; [3]): inactive ^b
